Measured values as given in US20010056184A1, “Pipecolinic acid derivatives, method of manufacturing the same and therapeutic agents containing these compounds” (priority 2000, published 2001).

What was measured:
Format in all cases: biochemical
[1] = target: T1, human fibroblasts derived MMP-1 (type I collagenase) (Homo sapiens, UniProt P03956); assay: MMP-1 (type I collagenase) inhibitory activities, fluorogenic substrate enzyme assay; settings: for inhibition at 10 µM: at 10^−5M, NE means no effect, read-out: MMP-1 inhibition percent; for IC50: 37° C., 4 h, substrate 10 μM
T1 construct: human fibroblasts derived MMP-1 (Yagai Co. Ltd.) as enzyme; purchased Yagai Co. Ltd; host or cells: human fibroblasts
T1 sequence (P03956 100-469): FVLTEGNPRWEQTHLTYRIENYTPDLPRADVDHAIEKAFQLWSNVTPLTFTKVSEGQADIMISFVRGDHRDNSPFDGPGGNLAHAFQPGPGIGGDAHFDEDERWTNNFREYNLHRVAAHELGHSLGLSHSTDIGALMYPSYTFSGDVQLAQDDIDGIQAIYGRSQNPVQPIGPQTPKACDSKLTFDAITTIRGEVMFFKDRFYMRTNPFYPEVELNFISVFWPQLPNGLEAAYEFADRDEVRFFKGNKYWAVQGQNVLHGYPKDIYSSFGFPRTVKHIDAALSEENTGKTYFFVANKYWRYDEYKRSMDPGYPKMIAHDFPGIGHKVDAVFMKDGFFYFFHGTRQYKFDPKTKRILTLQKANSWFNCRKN
Experimental: Examination 1: MMP-1 (type I collagenase) inhibitory activities.
Inhibitory activities of MMP-1 (type I collagenase) activities were estimated by enzyme assay using human fibroblasts derived MMP-1 (Yagai Co. Ltd.) as enzyme, and MOCAc-Pro-Leu-Gly-Leu-A2pr(Dnp)-Ala-Arg-NH2 (Peptide Research Center, 3163-v) as substrate. Thus, MMP-1 (0.01 U/ml), test compound (10^−10˜10^−5 M), and the substrate (10 μM) were incubated in 50 mM Tris-HCl buffer (pH 7.4) containing 0.2M NaCl, 10 mM CaCl2, 0.02% NaN3, and 0.05% Brij 35 at 37° C. for 4 h. The reaction was stopped by adding of 4 volumes of sodium acetate buffer (pH 4.0), and the degradation of substrate was calculated by measurement with a fluorescence intensity (λ ex 328 nm, λ em 393 nm). Inhibition of degradation of substrate in the presence of compound was determined by comparison with the degradation percent of substrate in the absence of compound, and concentration of 50% inhibition (IC50 value) was calculated.

MMP-2 (gelatinase A) = target: T2, MMP-2 (gelatinase A) (Homo sapiens, UniProt P08253); assay: MMP-2 (gelatinase A) inhibitory activities, fluorogenic substrate enzyme assay; settings: 42° C., 2 h, substrate 10 μM
T2 construct: made in house; host or cells: COS-1 cells (secreted into culture medium)
T2 sequence (P08253 110-660): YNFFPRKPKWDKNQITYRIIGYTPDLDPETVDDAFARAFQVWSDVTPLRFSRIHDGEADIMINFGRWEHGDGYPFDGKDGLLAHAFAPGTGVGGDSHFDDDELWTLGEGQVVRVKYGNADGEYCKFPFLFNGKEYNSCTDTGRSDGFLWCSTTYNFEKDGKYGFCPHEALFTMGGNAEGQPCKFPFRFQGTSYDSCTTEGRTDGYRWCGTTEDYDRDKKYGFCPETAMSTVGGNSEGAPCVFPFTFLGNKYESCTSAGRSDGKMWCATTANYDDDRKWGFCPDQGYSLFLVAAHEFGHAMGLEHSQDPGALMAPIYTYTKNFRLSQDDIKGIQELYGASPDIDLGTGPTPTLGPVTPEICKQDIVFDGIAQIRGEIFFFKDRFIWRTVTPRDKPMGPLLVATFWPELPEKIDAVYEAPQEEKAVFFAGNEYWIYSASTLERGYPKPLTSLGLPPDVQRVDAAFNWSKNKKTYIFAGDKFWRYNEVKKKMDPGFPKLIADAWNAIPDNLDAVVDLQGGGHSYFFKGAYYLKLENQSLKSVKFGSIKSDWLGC
Experimental: (§1) Examination 2: MMP-2 (gelatinase A) and MMP-9 (gelatinase B) inhibitory activities.
(§2) Pro MMP-2 was obtained from culture medium separated from human pro-MMP-2 cDNA tranfected COS-1 cells. Pro MMP-2 activated by 1 mM (4-aminophenyl) mercury acetic acid and MMP-9, derived human fibrosarcome (Yagai Co. Ltd.), were used as enzyme respectively. Inhibition of both enzyme activities were estimated by enzyme assay using MOCAc-Pro-Leu-Gly-Leu-A2pr(Dnp)-Ala-Arg-NH2 (Peptide Research Center, 3163-v) as substrate. Thus, MMP-2 or MMP-9 (0.01 U/ml), test compound (several concentrations), and the substrate (10 μM) were incubated in 50 mM Tris - HCl buffer (pH 7.4) containing 0.2M NaCl, 10 mM CaCl2, 0.02% NaN3, and 0.05% Brij 35 at 42° C. for 2 h (MMP-2), 3 h (MMP-9) respectively. Inhibition of degradation of substrate in the presence of compound was determined by comparison with the degradation of substrate in the absence of compound, and concentration of 50% inhibition (IC50 value) was calculated.

MMP-9 (gelatinase B) = target: T3, MMP-9 (gelatinase B) (Homo sapiens, UniProt P14780); assay: MMP-9 (gelatinase B) inhibitory activities, fluorogenic substrate enzyme assay; settings: for IC50: 42° C., 3 h, substrate 10 μM
T3 construct: MMP-9, derived human fibrosarcome (Yagai Co. Ltd.), were used as enzyme respectively; purchased Yagai Co. Ltd; host or cells: human fibrosarcoma
Experimental: as §1, §2

Δ MT1-MMP (Δ MMP-14) = target: T4, Δ MT1-MMP (Δ MMP-14) (Homo sapiens, UniProt P50281); assay: Δ MT1-MMP (Δ MMP-14) inhibitory activities, fluorogenic substrate enzyme assay; settings: 37° C., 30 min, substrate 10 μM; read-out: ΔMMP-14 IC50
T4 construct: ProMT1-MMP cDNA encoded extracellular domain of pro Δ MT1-MMP was tranfected E. coli BL21DE3; made in house; host or cells: E. coli BL21DE3 (inclusion bodies, 8M urea, ion exchange)
From the text: Examination 3: Δ MT1-MMP (Δ MMP-14) inhibitory activities.
ProMT1-MMP cDNA encoded extracellular domain of pro Δ MT1-MMP was tranfected E. coli BL21DE3, pro Δ MT1-MMP collected as inclusion body was solved using 8M urea, and it was pulified by ion exchenge column chlomatography. Inhibition of enzyme activities were estimated by enzyme assay using activated Δ MT1-MMP, obtained from activation of pro Δ MT1-MMP by 10 μ/ml tripsine, and MOCAc-Pro-Leu-Gly-Leu-A2pr(Dnp)-Ala-Arg-NH2 (Peptide Research Center, 3163-v) as substrate. Thus, Δ MT1-MMP, test compound (several concentrations), and the substrate (10 μM) were incubated in 50 mM Tris - HCl buffer (pH 7.4) containing 0.2M NaCl, 10 mM CaCl2, 0.02% NaN3, 0.05% Brij 35, and 10 μM leuipeputine at 37° C. for 30 min. The reaction was stopped by adding of 4 volumes of sodium acetate buffer (pH 4.0), and the degradation of substrate was calculated by measurement with a fluorescence intensity (λ ex 328 nm, λ em 393 nm). Inhibition of degradation of substrate in the presence of compound was determined by comparison with the degradation of substrate in the absence of compound, and concentration of 50% inhibition (IC50 value) was calculated.

T3 sequence (P14780 94-707): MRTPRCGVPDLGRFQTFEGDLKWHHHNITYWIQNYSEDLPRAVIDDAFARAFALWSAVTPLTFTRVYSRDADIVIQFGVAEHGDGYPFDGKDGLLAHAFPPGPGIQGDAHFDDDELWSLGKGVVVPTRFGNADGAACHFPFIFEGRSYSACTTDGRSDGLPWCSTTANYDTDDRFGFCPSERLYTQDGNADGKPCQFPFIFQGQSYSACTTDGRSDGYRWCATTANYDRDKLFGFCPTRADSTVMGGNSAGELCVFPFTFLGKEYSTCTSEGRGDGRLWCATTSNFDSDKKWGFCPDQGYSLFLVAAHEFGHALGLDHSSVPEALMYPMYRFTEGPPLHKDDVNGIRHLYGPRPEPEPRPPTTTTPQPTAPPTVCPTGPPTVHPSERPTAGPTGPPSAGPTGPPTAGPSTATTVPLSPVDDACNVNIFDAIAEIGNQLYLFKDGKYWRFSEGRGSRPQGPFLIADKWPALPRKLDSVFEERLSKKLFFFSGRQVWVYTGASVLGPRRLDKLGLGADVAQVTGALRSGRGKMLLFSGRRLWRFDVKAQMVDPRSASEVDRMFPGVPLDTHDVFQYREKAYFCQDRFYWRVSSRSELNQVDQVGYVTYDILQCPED

| Structure (SMILES) | inhibition at 10 µM [1] [%] | IC50 (MMP-2 (gelatinase A)) [nM] | IC50 (MMP-9 (gelatinase B)) [nM] | IC50 (Δ MT1-MMP (Δ MMP-14)) [nM] | IC50 [1] [nM] | inhibition at 10 µM (MMP-9 (gelatinase B); at 10^−5M, read-out: MMP-9 inhibition percent) [%] |
| --- | --- | --- | --- | --- | --- | --- |
| COc1ccc(-c2ccc(S(=O)(=O)N3CC[C@@H](NC(=O)c4ccccc4)C[C@@H]3C(=O)NO)cc2)cc1 [Compound 59, (2R, 4R)-4-Benzoylamino-2-hydroxyaminocarbonyl-1-[4-(4-methoxyphenyl)benzenesulfonyl]-piperidine] | 57.6 | 180 | 11 | 95 |  |  |
| COc1ccc(C(=O)N[C@@H]2CCN(S(=O)(=O)c3ccc(OC)cc3)[C@@H](C(=O)NO)C2)cc1 [Compound 47, (2R, 4R)-2-Hydroxyaminocarbonyl-1-(4-methoxybenzenesulfonyl)-4-(4-methoxybenzoylamino)-piperidine] |  | 1.7 | 1.3 | 3.2 | 5500 |  |
| CC(=O)N[C@@H]1CCN(S(=O)(=O)c2ccc(-c3ccc(O)cc3)cc2)[C@@H](C(=O)NO)C1 [Compound 65, (2R, 4R)-4-Acetylamino-2-hydroxyaminocarbonyl-1-[4-(4-hydroxyphenyl)benzenesulfonyl]-piperidine] |  | 4.8 | 51 | 23 | 870 |  |
| COc1ccc(S(=O)(=O)N2CC[C@@H](NC(C)=O)C[C@@H]2C(=O)NO)cc1 [Compound 66, (2R, 4R)-4-Acetylamino-2-hydroxyaminocarbonyl-1-(4-methoxybenzenesulfonyl)-piperidine] |  | 4.2 | 8.6 | 2.1 | 530 |  |
| CC(C)CCC(=O)N[C@@H]1CCN(S(=O)(=O)c2ccc(-c3ccc(Cl)cc3)cc2)[C@@H](C(=O)NO)C1 [Compound 71, (2R, 4R)-1-[4-(4-Chlorohenyl)benzenesulfonyl]-2-hydroxyaminocarbonyl-4-(4-methylpentanoylamino)-piperidine] |  | 19 | 3.4 | 290 | 640 |  |
| COc1ccc(C(=O)N[C@@H]2CCN(S(=O)(=O)c3ccc(-c4ccc(OC)cc4)cc3)[C@@H](C(=O)NO)C2)cc1 [Compound 48, (2R, 4R)-2-Hydroxyaminocarbonyl-4-(4-methoxybenzoylamino)-1-[4-(4-methoxyphenyl)benzenesulfonyl]-piperidine] | 35.5 | 0.55 | 0.4 | 310 |  |  |
| COc1ccc(S(=O)(=O)N2CC[C@H](NC(=O)CCC(C)C)C[C@H]2C(=O)NO)cc1 [Compound 79, (2S, 4S)-2-Hydroxyaminocarbonyl-1-(4-methoxybenzenesulfonyl)-4-(4-methylpentanoylamino)-piperidine] | 0 | 7600 |  | 5000 |  | 23.3 |
| CC(C)CCC(=O)N[C@@H]1CCN(S(=O)(=O)c2ccc(O)cc2)[C@@H](C(=O)NO)C1 [Compound 63] |  | 28 | 31 | 17 | 510 |  |
| COc1ccc(-c2ccc(S(=O)(=O)N3CC[C@@H](NCCCC(C)C)C[C@@H]3C(=O)NO)cc2)cc1 [Compound 61, (2R, 4R)-2-Hydroxyaminocarbonyl-1-[4-(4-methoxyphenyl)benzenesulfonyl]-4-(4-methylpentylamino)-piperidine] | 44.6 | 2.7 | 19 | 49 |  |  |
| COc1ccc(-c2cccc(S(=O)(=O)N3CC[C@@H](NC(=O)CCC(C)C)C[C@@H]3C(=O)NO)c2)cc1 [Compound 52, (2R, 4R)-2-Hydroxyaminocarbonyl-1-[3-(4-methoxyphenyl)benzenesulfonyl]-4-(4-methylpentanoylamino)-piperidine] | 48.9 | 210 | 420 | 79 |  |  |
| CC(C)CCC(=O)N[C@@H]1CCN(S(=O)(=O)c2cccs2)[C@@H](C(=O)NO)C1 [Compound 51, (2R, 4R)-2-Hydroxyaminocarbonyl-4-(4-methylpentanoylamino)-1-(2-thiophenesulfonyl)-piperidine] |  | 80 | 75 | 31 | 6.5 |  |
